Measured values taken from ChEMBL document CHEMBL1201862, “PubChem BioAssay data set” (2004).
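A five-concentration, 48-hour dose response in 96-well plates underlies each endpoint, interpolated linearly between surrounding concentrations. Here, GI50 denotes the concentration required for 50% inhibition of growth.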 Activity calls are given as the source filed them. Cut-off read from the data, not from the text of the source: active = GI50 up to about 1.1 µM and inactive = higher.

Assays:
Assay in all cases: inhibition of tumour cell growth, NCI panel, 48 h
SN12C = system: SN12C
NCI-H23 = system: NCI-H23
LOX IMVI = system: LOX IMVI
KM-20L2 = system: KM-20L2
Malme-3M = system: Malme-3M
CCRF-CEM = system: CCRF-CEM
DLD-1 = system: DLD-1
SNB-75 = system: SNB-75
NCI-H460 = system: NCI-H460
SR = system: SR
RXF 393 = system: RXF 393
HOP-92 = system: HOP-92
OVCAR-3 = system: OVCAR-3
SK-MEL-2 = system: SK-MEL-2
EKVX = system: EKVX
MOLT-4 = system: MOLT-4
DMS-273 = system: DMS-273
SF-295 = system: SF-295
HL-60 = system: HL-60
A498 = system: A498
A549 = system: A549
DMS-114 = system: DMS-114
SK-MEL-5 = system: SK-MEL-5
OVCAR-8 = system: OVCAR-8
K562 = system: K562
OVCAR-5 = system: OVCAR-5
M14 = system: M14
ACHN = system: ACHN
M19-MEL = system: M19-MEL
NCI-H522 = system: NCI-H522
LXFL 529 = system: LXFL 529
SW-620 = system: SW-620
SK-MEL-28 = system: SK-MEL-28
SNB-78 = system: SNB-78
CAKI-1 = system: CAKI-1
HT-29 = system: HT-29
UO-31 = system: UO-31
HCC 2998 = system: HCC 2998
HCT-116 = system: HCT-116
U-251 = system: U-251
KM12 = system: KM12
IGROV-1 = system: IGROV-1
786-0 = system: 786-0
RPMI-8226 = system: RPMI-8226
NCI-H226 = system: NCI-H226
UACC-257 = system: UACC-257
TK-10 = system: TK-10
HOP-18 = system: HOP-18
COLO 205 = system: COLO 205
HOP-62 = system: HOP-62
UACC-62 = system: UACC-62
RXF 631 = system: RXF 631
SK-OV-3 = system: SK-OV-3
HCT-15 = system: HCT-15
SNB-19 = system: SNB-19
SF-268 = system: SF-268
SF-539 = system: SF-539
OVCAR-4 = system: OVCAR-4

Q: For CCCCCCCCSC(SCCCCCCCC)=C1C(=O)N(c2ccccc2)N=C1C, which GI50 (SN12C) is on record?
A: 33.7 µM (inactive)

Q: And the GI50 (NCI-H23)?
A: 32.8 µM (inactive)

Q: And the GI50 (LOX IMVI)?
A: 17.7 µM (inactive)

Q: What about the GI50 (KM-20L2) of the same compound?
A: 55.7 µM (inactive)

Q: And the GI50 (Malme-3M)?
A: 53.6 µM (inactive)

Q: And the GI50 (CCRF-CEM)?
A: 16.1 µM (inactive)

Q: And the GI50 (DLD-1)?
A: 21.4 µM (inactive)

Q: What about the GI50 (SNB-75) of the same compound?
A: 41.8 µM (inactive)

Q: And the GI50 (NCI-H460)?
A: 40.3 µM (inactive)

Q: What about the GI50 (SR) of the same compound?
A: 14.9 µM (inactive)

Q: And the GI50 (RXF 393)?
A: 53.5 µM (inactive)

Q: And the GI50 (HOP-92)?
A: 31.8 µM (inactive)

Q: What about the GI50 (OVCAR-3) of the same compound?
A: 29.4 µM (inactive)

Q: What about the GI50 (SK-MEL-2) of the same compound?
A: 58.6 µM (inactive)

Q: What about the GI50 (EKVX) of the same compound?
A: 59.3 µM (inactive)

Q: And the GI50 (MOLT-4)?
A: 28.4 µM (inactive)

Q: And the GI50 (DMS-273)?
A: 49.4 µM (inactive)

Q: And the GI50 (SF-295)?
A: 36.9 µM (inactive)

Q: And the GI50 (HL-60)?
A: 19.2 µM (inactive)

Q: What about the GI50 (A498) of the same compound?
A: 24.3 µM (inactive)

Q: What about the GI50 (A549) of the same compound?
A: 26.8 µM (inactive)

Q: What about the GI50 (DMS-114) of the same compound?
A: 28.4 µM (inactive)

Q: What about the GI50 (SK-MEL-5) of the same compound?
A: 47 µM (inactive)

Q: What about the GI50 (OVCAR-8) of the same compound?
A: 35.5 µM (inactive)

Q: And the GI50 (K562)?
A: 28.7 µM (inactive)

Q: What about the GI50 (OVCAR-5) of the same compound?
A: 80.4 µM (inactive)

Q: And the GI50 (M14)?
A: 83 µM (inactive)

Q: What about the GI50 (ACHN) of the same compound?
A: 35.2 µM (inactive)

Q: And the GI50 (M19-MEL)?
A: 37 µM (inactive)

Q: And the GI50 (NCI-H522)?
A: 20.3 µM (inactive)

Q: What about the GI50 (LXFL 529) of the same compound?
A: 43.4 µM (inactive)

Q: What about the GI50 (SW-620) of the same compound?
A: 14.5 µM (inactive)

Q: What about the GI50 (SK-MEL-28) of the same compound?
A: > 100 µM (inactive)

Q: And the GI50 (SNB-78)?
A: > 100 µM (inactive)

Q: And the GI50 (CAKI-1)?
A: 26.9 µM (inactive)

Q: And the GI50 (HT-29)?
A: 45.8 µM (inactive)

Q: And the GI50 (UO-31)?
A: 27.5 µM (inactive)

Q: What about the GI50 (HCC 2998) of the same compound?
A: 71.3 µM (inactive)

Q: And the GI50 (HCT-116)?
A: 14.8 µM (inactive)

Q: And the GI50 (U-251)?
A: 17.5 µM (inactive)

Q: And the GI50 (KM12)?
A: 33.7 µM (inactive)

Q: And the GI50 (IGROV-1)?
A: 43.1 µM (inactive)

Q: What about the GI50 (786-0) of the same compound?
A: 46.1 µM (inactive)

Q: And the GI50 (RPMI-8226)?
A: 39.4 µM (inactive)

Q: What about the GI50 (NCI-H226) of the same compound?
A: 64.4 µM (inactive)

Q: What about the GI50 (UACC-257) of the same compound?
A: 30.5 µM (inactive)

Q: And the GI50 (TK-10)?
A: 42.6 µM (inactive)

Q: What about the GI50 (HOP-18) of the same compound?
A: 61.7 µM (inactive)

Q: What about the GI50 (COLO 205) of the same compound?
A: 24.7 µM (inactive)

Q: And the GI50 (HOP-62)?
A: 46.5 µM (inactive)

Q: And the GI50 (UACC-62)?
A: 24.5 µM (inactive)

Q: What about the GI50 (RXF 631) of the same compound?
A: > 100 µM (inactive)

Q: And the GI50 (SK-OV-3)?
A: 77.3 µM (inactive)

Q: And the GI50 (HCT-15)?
A: 37.7 µM

Q: What about the GI50 (SNB-19) of the same compound?
A: 30.3 µM (inactive)

Q: What about the GI50 (SF-268) of the same compound?
A: > 100 µM (inactive)

Q: With CCOC(=O)C(=O)Nc1nc2c(OCC)cccc2s1 as the compound, how does the GI50 (SN12C) read?
A: > 100 µM (inactive)

Q: What about the GI50 (NCI-H23) of the same compound?
A: > 100 µM (inactive)

Q: What about the GI50 (LOX IMVI) of the same compound?
A: > 100 µM (inactive)

Q: And the GI50 (KM-20L2)?
A: > 100 µM (inactive)

Q: What about the GI50 (Malme-3M) of the same compound?
A: > 100 µM (inactive)

Q: What about the GI50 (DLD-1) of the same compound?
A: > 100 µM (inactive)

Q: And the GI50 (SNB-75)?
A: > 100 µM (inactive)

Q: What about the GI50 (NCI-H460) of the same compound?
A: > 100 µM (inactive)

Q: What about the GI50 (RXF 393) of the same compound?
A: > 100 µM (inactive)

Q: And the GI50 (HOP-92)?
A: > 100 µM (inactive)

Q: What about the GI50 (OVCAR-3) of the same compound?
A: > 100 µM (inactive)

Q: And the GI50 (SK-MEL-2)?
A: > 100 µM (inactive)

Q: What about the GI50 (EKVX) of the same compound?
A: > 100 µM (inactive)

Q: And the GI50 (MOLT-4)?
A: > 100 µM (inactive)

Q: And the GI50 (DMS-273)?
A: > 100 µM (inactive)

Q: And the GI50 (SF-539)?
A: > 100 µM (inactive)

Q: And the GI50 (SF-295)?
A: > 100 µM (inactive)

Q: And the GI50 (HL-60)?
A: > 100 µM (inactive)

Q: And the GI50 (A498)?
A: > 100 µM (inactive)

Q: And the GI50 (A549)?
A: > 100 µM (inactive)

Q: And the GI50 (DMS-114)?
A: > 100 µM (inactive)

Q: What about the GI50 (SK-MEL-5) of the same compound?
A: > 100 µM (inactive)

Q: What about the GI50 (OVCAR-8) of the same compound?
A: > 100 µM (inactive)

Q: What about the GI50 (K562) of the same compound?
A: > 100 µM (inactive)

Q: And the GI50 (OVCAR-5)?
A: > 100 µM (inactive)

Q: What about the GI50 (M14) of the same compound?
A: > 100 µM (inactive)

Q: What about the GI50 (ACHN) of the same compound?
A: > 100 µM (inactive)

Q: What about the GI50 (M19-MEL) of the same compound?
A: > 100 µM (inactive)

Q: And the GI50 (NCI-H522)?
A: > 100 µM (inactive)

Q: What about the GI50 (LXFL 529) of the same compound?
A: > 100 µM (inactive)

Q: What about the GI50 (SW-620) of the same compound?
A: > 100 µM (inactive)

Q: And the GI50 (OVCAR-4)?
A: > 100 µM (inactive)

Q: And the GI50 (SK-MEL-28)?
A: > 100 µM (inactive)

Q: What about the GI50 (SNB-78) of the same compound?
A: > 100 µM (inactive)

Q: What about the GI50 (CAKI-1) of the same compound?
A: > 100 µM (inactive)

Q: What about the GI50 (HT-29) of the same compound?
A: > 100 µM (inactive)

Q: What about the GI50 (UO-31) of the same compound?
A: > 100 µM (inactive)

Q: What about the GI50 (HCC 2998) of the same compound?
A: > 100 µM (inactive)

Q: And the GI50 (HCT-116)?
A: > 100 µM (inactive)

Q: What about the GI50 (U-251) of the same compound?
A: > 100 µM (inactive)

Q: What about the GI50 (KM12) of the same compound?
A: > 100 µM (inactive)

Q: And the GI50 (IGROV-1)?
A: > 100 µM (inactive)

Q: What about the GI50 (786-0) of the same compound?
A: > 100 µM (inactive)

Q: And the GI50 (RPMI-8226)?
A: > 100 µM (inactive)

Q: What about the GI50 (NCI-H226) of the same compound?
A: > 100 µM (inactive)

Q: What about the GI50 (UACC-257) of the same compound?
A: > 100 µM (inactive)

Q: And the GI50 (TK-10)?
A: > 100 µM (inactive)

Q: What about the GI50 (HOP-18) of the same compound?
A: > 100 µM (inactive)

Q: And the GI50 (COLO 205)?
A: > 100 µM (inactive)

Q: What about the GI50 (HOP-62) of the same compound?
A: > 100 µM (inactive)

Q: What about the GI50 (UACC-62) of the same compound?
A: > 100 µM (inactive)

Q: And the GI50 (RXF 631)?
A: > 100 µM (inactive)

Q: What about the GI50 (SK-OV-3) of the same compound?
A: > 100 µM (inactive)

Q: And the GI50 (HCT-15)?
A: > 100 µM

Q: What about the GI50 (SNB-19) of the same compound?
A: > 100 µM (inactive)

Q: What about the GI50 (SF-268) of the same compound?
A: > 100 µM (inactive)
